Assay results as given in patent US20250319056A1, “METHODS FOR TREATING CANCER” (THE TRUSTEES OF INDIANA UNIVERSITY, priority 2024, published 2025).

Experiments:
HCT-116 cells = experiment: AlamarBlue cell viability assay, HCT-116 colon cancer cells; assay type: cell-based, human; conditions: for Average Selectivity Index: CC50 non-cancer cells (FHC, FHs 74Int) compared to EC50 HCT-116; for EC50: Homo sapiens, HCT-116, 48 h, AlamarBlue, 48 h with compound, read-out: Human Cell Viability EC50 Colon Cancer (HCT 116)
DLD-1 cells = experiment: AlamarBlue cell viability assay, DLD-1 colon cancer cells; assay type: cell-based; conditions: Homo sapiens, 48 h with compound, ^BP = curve baseline plateaued between ~10-20%, read-out: Human Cell Viability EC50 Colon Cancer (DLD1)
HT-29 cells = experiment: AlamarBlue cell viability assay, HT-29 colon cancer cells; assay type: cell-based; conditions: Homo sapiens, 48 h with compound, ^BP = curve baseline plateaued between ~10-20%
mHSP60/10 = biological target: T1, mHSP60/10 (Homo sapiens, UniProt P10809); experiment: mHSP60/10-mediated dMDH refolding assay; assay type: biochemical; conditions: denatured malate dehydrogenase client; read-out: IC50 mHSP60/10-dMDH refolding
T1 construct: Processed human HSP60 (mHSP60—that would be in mitochondria) was expressed in Rosetta™ 2 (DE3) E. coli; octa-Histidine tag (TEV-cleavable) (N, cleaved yes); made in house; host or cells: E. coli Rosetta 2 (DE3) for mHSP60; Rosetta 2 (DE3) pLysS for HSP10

GroEL/ES = biological target: T2, GroEL/ES (Escherichia coli, UniProt P0A6F5); experiment: GroEL/ES-dMDH refolding assay; assay type: biochemical, E. coli
T2 construct: made in house; host or cells: NEB 5-alpha E. coli for GroEL; E. coli BL21 (DE3) for GroES

[1] = AlamarBlue cell viability assay, non-cancerous colon FHC cells; conditions: human, FHC non-cancerous colon cells, Human Cell Viability CC50 Colon (FHC), non-cancerous colon cells, AlamarBlue, 48 h
FHC cells = experiment: as above; conditions: read-out: Human Cell Viability CC50 Colon (FHC); non-cancerous colon cells, AlamarBlue, 48 h
[2] = AlamarBlue cell viability assay, non-cancerous intestine FHs-74Int cells; conditions: human, FHs-74Int non-cancerous intestine cells, Human Cell Viability CC50 Intestine (FHs 74Int), non-cancerous intestine cells, AlamarBlue, 48 h
FHs-74Int cells = experiment: as above; conditions: read-out: Human Cell Viability CC50 Intestine (FHs 74Int); non-cancerous intestine cells, AlamarBlue, 48 h
NCI-60 cancer cell panel [3] = experiment: NCI-60 panel single-dose cell growth screen; assay type: cell-based; conditions: single dose 10 μM; 0 = cytostatic, -100% = cytocidal, +100% = growth
Description: FIGS. 10A-10J show cell growth results for 10 lead candidate inhibitors (compound 162, FIG. 10A; compound 163, FIG. 10B; compound 164, FIG. 10C; compound 4, FIG. 10D; compound 165, FIG. 10E; compound 139, FIG. 10F; compound 132, FIG. 10G; compound 143, FIG. 10H; compound 147, FIG. 10I; compound 128, FIG. 10J) tested at 10 μM against the NCI cancer cell panel. Zero indicates no cells growth/death from what was initially plated (cytostatic inhibition). −100% indicates […] (cytocidal inhibition). +100% indicates cell growth.
In a previous study evaluating the anti-cancer effects of ABK inhibitors, the National Cancer Institute (NCI) database was explored for existing cytotoxicity results for any compounds bearing α,β-unsaturated ketone moieties against the comprehensive NCI-60 cancer cell panel. […] The HQ-NAH and NF-NAH inhibitor library was explored based on the similarity to Nifuroxazide's scaffold. […] Initial screening was performed at a single concentration of 10 μM, and cell growth results are presented in aggregate based on cancer cell origin (FIGS. 10A-10J).

NCI-60 cancer cell panel [4] = experiment: NCI-60 panel dose-response cell growth testing; assay type: cell-based; conditions: follow-up dose response, range across NCI-60 cell lines
Excerpt: FIGS. 11A-11G show cell growth results in dose-response for 7 lead candidate inhibitors (compound 162, FIG. 11A; compound 164, FIG. 11B; compound 128, FIG. 11C compound 165, FIG. 11D; compound 139, FIG. 11E; compound 143, FIG. 11F; compound 147, FIG. 11G) from initial single-dose NCI-60 screen.
Therefore, they appeared to act in a cytocidal manner.

T2 sequence (P0A6F5 2-548): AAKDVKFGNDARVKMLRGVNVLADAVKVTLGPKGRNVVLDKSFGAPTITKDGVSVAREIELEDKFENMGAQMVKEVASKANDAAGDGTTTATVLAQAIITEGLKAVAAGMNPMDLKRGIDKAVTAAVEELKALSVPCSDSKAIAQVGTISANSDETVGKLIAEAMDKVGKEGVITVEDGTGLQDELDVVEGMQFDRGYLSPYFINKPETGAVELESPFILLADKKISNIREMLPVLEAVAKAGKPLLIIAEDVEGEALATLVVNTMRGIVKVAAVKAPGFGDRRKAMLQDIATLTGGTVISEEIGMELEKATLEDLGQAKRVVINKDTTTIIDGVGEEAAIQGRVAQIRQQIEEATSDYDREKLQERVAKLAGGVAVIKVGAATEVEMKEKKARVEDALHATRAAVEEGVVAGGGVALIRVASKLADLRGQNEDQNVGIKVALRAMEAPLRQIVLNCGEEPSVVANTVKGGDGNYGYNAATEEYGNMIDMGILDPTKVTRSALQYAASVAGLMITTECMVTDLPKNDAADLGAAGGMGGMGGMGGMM
T1 sequence (P10809 27-573): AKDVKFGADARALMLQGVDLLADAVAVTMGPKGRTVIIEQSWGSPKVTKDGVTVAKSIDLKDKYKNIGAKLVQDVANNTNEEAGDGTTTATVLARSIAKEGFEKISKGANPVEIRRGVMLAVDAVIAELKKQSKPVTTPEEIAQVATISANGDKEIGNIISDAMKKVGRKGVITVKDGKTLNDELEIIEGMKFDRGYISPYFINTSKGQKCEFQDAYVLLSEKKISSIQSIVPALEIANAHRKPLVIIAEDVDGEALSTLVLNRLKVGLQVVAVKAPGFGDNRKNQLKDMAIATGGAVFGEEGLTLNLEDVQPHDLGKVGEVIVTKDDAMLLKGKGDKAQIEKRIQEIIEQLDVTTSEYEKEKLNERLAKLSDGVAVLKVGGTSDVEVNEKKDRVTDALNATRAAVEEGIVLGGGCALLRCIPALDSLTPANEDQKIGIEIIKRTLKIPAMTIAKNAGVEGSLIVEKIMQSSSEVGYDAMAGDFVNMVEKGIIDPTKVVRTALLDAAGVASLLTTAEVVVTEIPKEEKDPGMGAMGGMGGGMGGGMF

For `COc1ccc(C(=O)N/N=C/c2ccc(O)c3ncccc23)cc1` [Compound 18, N′-((8-hydroxyquinolin-5-yl)methylene)-4-methoxybenzohydrazide], the “Average Selectivity Index” value (HCT-116 cells) was 5.3, the EC50 (HCT-116 cells) was 7.8 µM and the EC50 (DLD-1 cells) was 3.8 µM. For the same molecule, the EC50 (HT-29 cells) was 3.5 µM, the IC50 (mHSP60/10) was 0.8 to 9 µM and the IC50 (GroEL/ES) was 0.8 to 9 µM. For the same molecule, the CC50 at 48 h [1] was 28.4 µM, the CC50 (FHC cells) was 28 µM and the CC50 at 48 h [2] was 54.9 µM. For the same molecule, the CC50 (FHs-74Int cells) was 55 µM.
With `CCOc1ccc(S(=O)(=O)Nc2ccc(C(=O)N/N=C/c3ccc(O)c4ncccc34)cc2)cc1` [Compound 147, 4-ethoxy-N-(4-(2-((8-hydroxyquinolin-5-yl)methylene)hydrazine-1-carbonyl)phenyl)benzenesulfonamide] the “Average Selectivity Index” value (HCT-116 cells) was 25, the EC50 (HCT-116 cells) was 1.8 µM and the EC50 (DLD-1 cells) was 6.2 µM. For the same molecule, the EC50 (HT-29 cells) was 2.9 µM, the “cell growth % NCI cancer cell panel” value (NCI-60 cancer cell panel [3]) was “negative % growth” and the GI50 (NCI-60 cancer cell panel [4]) was 0.2 to 0.4 µM. It also gave a CC50 at 48 h [1] of 52 µM and a CC50 at 48 h [2] of 40 µM.
